The SangsterLogP compilation

Assays:
[1] = method code SF-RC, from DOI: 10.1021/jf60186a044, PMID: 4688915
[2] = method code SF-RC, from DOI: 10.1021/acs.jmedchem.6b00849, PMID: 27690428; settings: pH 7.4
[3] = method code SF, from DOI: 10.1016/j.ejmech.2012.08.015, PMID: 22960698
[4] = method code SF-AS, from DOI: 10.1021/jm00040a014, PMID: 8035429; settings: pH 7.4
[5] = method code SF-AS, from PMID: 7912440
[6] = method code SF, from DOI: 10.1002/jps.2600830715, PMID: 7965680
[7] = method code SF-RC, from DOI: 10.1021/jm00238a003, PMID: 1120999; settings: pH 7.0
[8] = method code SF-GLC, from DOI: 10.1016/s0021-9673(00)91779-5; settings: pH 7.0
[9] = not given; remark: listed apart in the source
[10] = method code SF-HPLC, from DOI: 10.1016/j.jpba.2011.06.023, PMID: 21782368; settings: pH 7.4
[11] = method code SF, from DOI: 10.1021/jm00167a034, PMID: 2329572; settings: pH 7.4
[12] = method code SF-AS, from DOI: 10.1016/s0021-9673(00)91570-x; settings: pH 3.4
[13] = method code SF-AS, from Zsuzsa, H.; Nora, K. (1979). Study on the partition coefficient of acetanilides. Nehezvegyp. Kut. Intez. Kozl., 8, 139-146.
[14] = not given; remark: listed apart in the source
[15] = method code SF-AS, from DOI: 10.1002/ps.2780140302; settings: pH 5.0
[16] = not given; remark: listed apart in the source
[17] = method code SF-AS, from DOI: 10.1135/cccc19831077; settings: pH 3.5
[18] = method code SF, from Wang, L.; Li, H.; Wang, X.; Zhang, Z. (1993). Determination of aqueous solubilities and partition coefficients of substitutive ethylketone congeners by generator column. Huanjing Huaxue, 12(2)151-154.
[19] = pH 7.4
[20] = method code SF-AS, from DOI: 10.1002/qsar.19830020405; settings: pH 2.0
[21] = method code SF-HPLC, from PMID: 1854437; settings: pH 7.4
[22] = not given; remark: listed apart in the source
[23] = not given; remark: listed apart in the source
[24] = not given; remark: listed apart in the source
[25] = not given; remark: listed apart in the source
[26] = method code SF-AS, from DOI: 10.1016/s0022-3565(25)32601-7, PMID: 7194909
[27] = method code SF-AS, from DOI: 10.1016/s0014-827x(98)00024-x, PMID: 9679281
[28] = method code SF-RC, from DOI: 10.1016/j.bmcl.2015.05.048, PMID: 26073008; settings: pH 7.4
[29] = method code SF, from DOI: 10.1021/jm00140a005, PMID: 7035668; settings: pH 12.0
[30] = method code SF-HPLC, from DOI: 10.1016/0378-5173(86)90195-x; settings: pH 7.4
[31] = method code SF-AS, from DOI: 10.1016/s0969-8051(99)00063-3, PMID: 10628565; settings: pH 7.0
[32] = method code SF-RC, from DOI: 10.1021/jm201482p, PMID: 22339166; settings: pH 6.8

Which logP [1] does the source give for Cc1ccc(C(c2ccc(C)cc2)C(Cl)(Cl)Cl)cc1 here?
Its logP is 3.57.

For N#Cc1ccc(N(Cc2ccc(I)cc2)c2cncnc2)cc1, which logD [2] is on record?
Its logD is 2.16.

With O=C(CC1OC(=O)c2ccccc21)c1ccccc1 (stereo not given) as the compound, how does the logP [3] read?
Its logP is 2.96.

For COc1ccc(C(=O)CC2OC(=O)c3ccccc32)cc1OC (stereo not given), which logP [3] is on record?
Its logP is 2.61.

Which logD [4] does the source give for COP(=O)(OC)C(=O)Nc1ccn(C2CSC(COC(=O)P(=O)(OC)OC)O2)c(=O)n1 (stereo not given) here?
Its logD is 0.72.

For CC(=O)c1cc(C(C)C)ccc1OCC(O)CN (stereo not given), which logP [5] is on record?
Its logP is 0.1.

Which logP does the source give for CCCCCC(C=O)(CCCC)c1oc(=O)c(CCCC)c(O)c1CCCC (stereo not given) here?
Its logP is 1.52.

For CC1(C)CC(NC(=O)CNC(=O)N(CCCl)N=O)CC(C)(C)N1O, which logP [6] is on record?
Its logP is 1.23.

For Nc1ccn([C@@H]2O[C@H](COC(=O)c3ccccc3)[C@@H](O)[C@@H]2O)c(=O)n1, which logD [7] is on record?
Its logD is 0.5.

For Nc1ccn([C@@H]2O[C@H](COC(=O)c3cccnc3)[C@@H](O)[C@@H]2O)c(=O)n1, which logD [7] is on record?
Its logD is -0.6.

For CCOP(=S)(Oc1ccccc1)c1ccccc1 (stereo not given), which logD [8] is on record?
Its logD is 1.79.

Which logP [9] does the source give for O=C1c2c(O)cc(O)cc2O[C@H](c2ccc(O)c(O)c2)[C@H]1O here?
Its logP is 1.4.

With CCOC(=O)CC(CNC(=O)OC(C)(C)C)c1ccc(Cl)cc1 (stereo not given) as the compound, how does the logD [10] read?
Its logD is 2.

With Cc1cn([C@H]2C[C@H](N=[N+]=[N-])[C@@H](COC(=O)c3cccnc3)O2)c(=O)[nH]c1=O as the compound, how does the logD [11] read?
The logD was 0.2.

Which logD [12] does the source give for COc1cc(CC(=O)O)ccc1OCCCC(C)C here?
Its logD is 3.3.

For CC(=O)N(CC(=O)Nc1ccccc1)c1ccccc1, which logP [13] is on record?
Its logP is 2.01.

For CCCCC(C#N)(Cn1cncn1)c1ccc(Cl)cc1 (stereo not given), which logP [14] is on record?
The logP was 3.16.

With OC(c1ccc(F)cc1)(c1cncnc1)c1ccccc1Cl (stereo not given) as the compound, how does the logD [15] read?
The logD was 2.2.

With CC(C)CC(O)C(O)C(N)NC1CCCCC1 (stereo not given) as the compound, how does the logP [16] read?
The logP was 1.86.

With COc1cc(CC(=O)O)ccc1OCc1ccccc1 as the compound, how does the logD [17] read?
The logD was 2.59.

With COc1ccc(C(=O)CSc2ccccc2)cc1 as the compound, how does the logP [18] read?
Its logP is 2.2.

With Cc1ccc(C)n1NC(=O)Cc1ccc(N2CCOCC2)nn1 as the compound, how does the logD [19] read?
The logD was 1.64.

For OC(c1ccccc1)(c1cncnc1)c1ccc(Cl)cc1Cl (stereo not given), which logD [15] is on record?
Its logD is 2.56.

For Cc1ccc(C(=O)c2ccc(CC(=O)O)n2C)cc1, which logD [20] is on record?
The logD was 2.79.

Which logD [21] does the source give for CCCC(=O)OCn1cnc(CSCCNC(=NC#N)NC)c1C here?
Its logD is 1.6.

With O=C(NC1CCN(CCO)CC1)c1ccc(I)cc1 as the compound, how does the logP [22] read?
The logP was 1.93.

Which logP [23] does the source give for Cc1nonc1-c1ccc(OCCCc2c[nH]cn2)cc1 here?
Its logP is 2.92.

For CCCCc1c(C)oc(=O)c(CCCC)c1O, which logP is on record?
Its logP is 0.79.

With CCOP(=O)(CC(=O)Nc1ccn(C2CSC(CO)O2)c(=O)n1)OCC (stereo not given) as the compound, how does the logD [4] read?
The logD was 0.99.

Which logP [24] does the source give for N#Cc1ccc(OCC2CCN(CCCF)CC2)cc1 here?
The logP was 2.8.

With NC(=O)c1c(-c2ccc(OCCCc3c[nH]cn3)cc2)no[n+]1[O-] as the compound, how does the logP [23] read?
The logP was 1.57.

Which logP [24] does the source give for N#Cc1ccc(OCC2CCN(CCF)CC2)cc1 here?
Its logP is 2.8.

Which logP [25] does the source give for Cc1noc(C)c1NC1=CC(=O)C(=O)c2ccccc21 here?
Its logP is 1.51.

With OC1(c2ccc(Cl)cc2)c2ccccc2C2=NCCCN21 (stereo not given) as the compound, how does the logP [26] read?
The logP was 1.41.

With c1ccc(Nc2nnc(Cn3ccc4ccccc43)s2)cc1 as the compound, how does the logP [27] read?
The logP was 3.73.

For OC1(c2ccc(Cl)cc2)c2ccccc2C2=NCCCCN21 (stereo not given), which logP [26] is on record?
Its logP is 1.15.

For CC(NC(=O)N(CCCl)N=O)C(=O)NC1CC(C)(C)N(O)C(C)(C)C1 (stereo not given), which logP [6] is on record?
The logP was 1.28.

With Cc1ccc(C(c2ccc(Cl)cc2)C(Cl)(Cl)Cl)cc1 (stereo not given) as the compound, how does the logP [1] read?
The logP was 4.47.

For Nc1ccc(S(=O)(=O)Nc2ccnn2-c2ccccc2)cc1, which logP [9] is on record?
The logP was 1.35.

Which logD [28] does the source give for O=c1cc(/C=C/c2ccc(O)cc2)oc2ccc(I)cc12 here?
Its logD is 1.87.

Which logD [17] does the source give for O=C(O)Cc1ccc(OCCc2ccccc2)c(Cl)c1 here?
The logD was 3.53.

With CCCCCc1onc(C)c1N=C1C=C(O)C(=O)c2ccccc21 as the compound, how does the logP [25] read?
Its logP is 3.25.

With N#Cc1ccc(N(Cc2ccc(I)cc2)n2ccnc2)cc1 as the compound, how does the logD [2] read?
Its logD is 1.59.

For COc1cc(Cc2cnc(N)nc2N)cc(OC)c1C, which logD [29] is on record?
Its logD is 2.14.

Which logD [29] does the source give for COc1cc(Cc2cnc(N)nc2N)cc(OC)c1Oc1ccc(N)cc1 here?
The logD was 0.9.

Which logD [8] does the source give for CCOP(=S)(Oc1ccc(C)cc1)c1ccccc1 (stereo not given) here?
Its logD is 2.22.

Which logP [13] does the source give for O=C(CN(C(=O)C(Cl)Cl)c1ccccc1)Nc1ccccc1 here?
Its logP is 2.96.

Which logD [10] does the source give for COC(=O)CC(CNC(=O)OC(C)(C)C)c1ccc(Cl)cc1 (stereo not given) here?
The logD was 1.5.

With CC(=O)OCOc1ccccc1C(=O)NCN1CCOCC1 as the compound, how does the logD [30] read?
The logD was 0.27.

With CCCC(=O)OCOc1ccccc1C(=O)NCN1CCOCC1 as the compound, how does the logD [30] read?
Its logD is 1.34.

For CC(C)CC(O)C(O)C(CC1CCCCCC1)NC(=O)CN (stereo not given), which logP [16] is on record?
The logP was 1.52.

With CC(C)(C)C(O)C(Oc1ccc(Cl)cc1)n1cncn1 (stereo not given) as the compound, how does the logP [14] read?
The logP was 3.05.

For Cc1ccc(C)n1Nc1ccc(N2C[C@@H](C)O[C@@H](C)C2)nn1, which logD [19] is on record?
The logD was 2.59.

Which logD [20] does the source give for CC(C(=O)O)c1cccc(C(=O)c2ccccc2)c1 (stereo not given) here?
The logD was 3.12.

With COc1ccc(/C=C/c2cc(=O)c3cc(I)ccc3o2)cc1 as the compound, how does the logD [28] read?
Its logD is 2.15.

For Cc1cn(C2CC(N=[N+]=[N-])C(COC(=O)C(N)Cc3ccc(O)cc3)O2)c(=O)[nH]c1=O (stereo not given), which logD [11] is on record?
Its logD is -0.03.

With O=c1[nH]c(Nc2ccccc2)nc2c1ncn2CC(O)CSCCO (stereo not given) as the compound, how does the logD [31] read?
Its logD is 0.83.

For O=C(O)Cc1ccc(OCc2ccccc2)cc1, which logD [12] is on record?
The logD was 2.85.

With O=C(NC1CCN(CCF)CC1)c1ccc(I)cc1 as the compound, how does the logP [22] read?
The logP was 2.57.

For Cc1ccc(SCC(=O)c2ccc(C)cc2)cc1, which logP [18] is on record?
The logP was 3.19.

Which logD [21] does the source give for CNC(=NC#N)NCCSCc1ncn(COC(=O)C(C)(C)C)c1C here?
The logD was 1.81.

For Cc1cccc2c1O[P@](=O)(OC[C@H]1O[C@@H](n3cc(I)c(=O)[nH]c3=O)C[C@@H]1O)OC2, which logD [32] is on record?
The logD was 0.85.

With CC(=O)c1cc(C(C)(C)C)ccc1OCC(O)CN (stereo not given) as the compound, how does the logP [5] read?
The logP was 0.38.

For Cc1[nH]c2ccccc2c1Cc1n[nH]c(=S)n1-c1cccc2ccccc12, which logP [27] is on record?
Its logP is 3.02.

For O=c1[nH]c(=O)n([C@H]2C[C@H](O)[C@@H](CO[P@]3(=O)OCc4ccccc4O3)O2)cc1I, which logD [32] is on record?
The logD was 0.65.
